From patent US20250154135A1, “M-CHOLINE RECEPTOR AGONIST COMPOUND, PREPARATION METHOD THEREFOR AND USE THEREOF” (NANJING GRITPHARMA CO., LTD., priority 2022, published 2025) come the findings set out here.

Experiment [1] deals with rabbit pupil. Kind of experiment: Rabbit pupil diameter change with other pilocarpine salts (Test Example 2). The format is in vivo. To be noted: for miosis effect on rabbit pupils 3 h after administration: Table 2-1 solutions, equimolar pilocarpine; for Percentage change in pupil diameter: average value ± SD. The source says:
Pilocarpine nitrate: with a molecular weight of 271.27 and a purity of 98%, from Nanjing Jiqun Pharmaceutical Technology Co., Ltd., prepared into a 1.38% solution using normal saline. Pilocarpine salicylate: with a molecular weight of 346.24 and a purity of 99.73%, from Nanjing Jiqun Pharmaceutical Technology Co., Ltd., prepared into a 1.76% solution using normal saline. Pilocarpine malate: with a molecular weight of 342.21 and a purity of 99.72%, from Nanjing Jiqun Pharmaceutical Technology Co., Ltd., prepared into a 1.74% solution using normal saline. Pilocarpine maleate: with a molecular weight of 324.19 and a purity of 99.76%, from Nanjing Jiqun Pharmaceutical Technology Co., Ltd., prepared into a 1.65% solution using normal saline. Pilocarpine fumarate: with a molecular weight of 324.19 and a purity of 99.74%, from Nanjing Jiqun Pharmaceutical Technology Co., Ltd., prepared into a 1.65% solution using normal saline. Pilocarpine lipoate: with a molecular weight of 414.58 and a purity of 99.56%, from Nanjing Jiqun Pharmaceutical Technology Co., Ltd., prepared into a 2.11% solution using normal saline. Note: The concentrations of the compounds were different, but they all contained an equimolar amount of pilocarpine. Each rabbit in each group was subjected to single eye drop administration in the left eye, with an administration volume of 100 μL. […] The entire measurement process was completed by the same person.

For experiment [2], the system named is rabbit pupil. The experiment in a line: Rabbit pupil constriction after single eye drop (Test Example 1). The format is in vivo, New Zealand rabbit. To be noted: rabbits, Test Example 1 solutions. As for the experimental part: Except for group 5), the eye drop solutions of groups 1) to 12) described above contained an equimolar concentration of pilocarpine. The molar concentration of pilocarpine in the eye drop solution of group 5) was half of the molar concentration of pilocarpine in the solutions of the other 11 groups.
The effects of the eye drop solutions of groups 1) to 12) prepared above on rabbit pupil constriction and irritation were tested separately.
• Species and strain: New Zealand rabbit • Grade: normal • Source: Qinglongshan Animal Breeding Farm, Jiangning District, Nanjing • Production license No.: SCXK (Su) 2016-0008 • Animal age: about 110 days old at the time of administration • Animal body weight: about 2.5-3.5 kg at the time of administration • Animal sex: all male • Feed: rabbit pellet feed • Housing conditions: air-conditioned room, with a temperature of 18-26° C. and a relative humidity of 40%-80%.
• Digital vernier caliper: specification: 0-150 mm; measurement accuracy: 0.01 mm; manufacturer: Guilin Guanglu Measuring Instrument Co., Ltd.
Each rabbit was subjected to eye drop administration in the left eye (using a pipette), with an administration volume of 100 μL.
• Number of animals: for JQ series compounds, 6 rabbits per compound; for compounds 1, 2 and 4, 5 rabbits per compound. • Administration schedule: single administration. Measurement indicators and time points: • for JQ series compounds, the pupil diameter of the left eye of the rabbits was measured at time points of −0.5 h (i.e., half an hour before administration), 5 min, 10 min, 15 min, 0.5 h, 3 h and 4 h relative to administration, with the measurement repeated 3 times for each rabbit at each time point (measurement time points were extended if necessary); • for compounds 1, 2 and 4, the pupil diameter of the left eye of the rabbits was measured at time points of 3 h and 4 h relative to administration, with the measurement repeated 3 times for each rabbit at each time point (measurement time points were extended if necessary).
Percentage change in pupil diameter (%) after administration=(pupil diameter after administration−pupil diameter before administration)/pupil diameter before administration×100%
The measurement result for each rabbit at each time point was represented by the average value of three measurements.

Setting [3] is: drug concentration 1.65%, 0.5 h.

Turning to `CC[C@@H]1C(=O)OC[C@@H]1Cc1cncn1C` [Pilocarpine nitrate], in the experiment with rabbit pupil [1], the “miosis effect on rabbit pupils 3 h after administration” value (“miosis effect on rabbit pupils 3 h” below) is “substantially no miosis effect”.
As for `CCC1C(=O)OCC1Cc1cncn1C.O=C(O)c1ccccc1O` (centres unmarked) [Pilocarpine salicylate], in the experiment on rabbit pupil [1], the “miosis effect on rabbit pupils 3 h” value is listed as “substantially no miosis effect”. Moreover, the “Percentage change in pupil diameter” value with rabbit pupil [1] (drug concentration 1.76%, 0.5 h) is given as −30.12 ± 4.47%; with rabbit pupil [1] (drug concentration 1.76%, 3 h) it was 2.91 ± 1.07%.
For Pilocarpine maleate, the “miosis effect on rabbit pupils 3 h” value in the experiment on rabbit pupil [1] is “substantially no miosis effect”. For the same compound, the “Percentage change in pupil diameter” value in the experiment on rabbit pupil [1] (setting [3]) is −27.53 ± 4.42%; in the experiment on rabbit pupil [1] (drug concentration 1.65%, 3 h), −1.52 ± 6.38%.
For Pilocarpine fumarate the same measures were “substantially no miosis effect”, −22.09 ± 6.44% and −1.00 ± 1.51%.
Regarding `CC[C@@H]1C(=O)OC[C@@H]1Cc1cncn1C` [Compound 4], in the experiment on rabbit pupil [2], the “pupil constriction (miosis) effect at 3 h after administration” value was “still showed miosis effect”.
For the compound Pilocarpine malate, in the experiment with rabbit pupil [1], the “miosis effect on rabbit pupils 3 h” value was “substantially no miosis effect”. Further, the “Percentage change in pupil diameter” value in the experiment with rabbit pupil [1] (drug concentration 1.74%, 0.5 h) is −27.71 ± 4.98%; in the experiment on rabbit pupil [1] (drug concentration 1.74%, 3 h) it was 0.07 ± 2.49%.
